Assay [1] concerns the target T1, butyrylcholine esterase (BuChE) (Mus musculus, UniProt Q03311).
T1 construct: brain homogenate and serum of mouse were used as choline esterase enzyme sources; from tissue; host or cells: mouse serum
Briefly: In vitro assay for choline esterase inhibition (Ellman method), butyrylthiocholine substrate, mouse serum. Conditions: for Ratio AChE/BuChE: selectivity for BuChE inhibition: IC50 (AchE)/IC50 (BuChE); for selectivity to butyrylcholinesterase (BuChE versus AChE inhibitory activity), in words: summary of Tables 1-3. The assay is classed as biochemical. The procedure: (§1) For measurement of esterase activity, brain homogenate and serum of mouse were used as choline esterase enzyme sources, and the method of Ellman et. al (Biochemical pharmacology 7: 88-95 1961) were referred. Compound of each example were diluted in dimethylsulfoxide.
(§2) In detail, acetylthiocholine or butyrylthiocholine as substrates, test compounds, and DNTB [[…]] were added to the mouse brain homogenate or serum, respectively.
(§3) After incubation, thiocholine was produced by enzyme reaction in the mixture, and then, the yellow product was formed by the reaction of thiocholine and DTNB. The activity of acetylcholine esterase (AChE) or butyrylcholine esterase (BuChE) was evaluated by determination of absorbance at 415 nm. […] And the selectivity for BuChE inhibition of each compound was calculated by the ratio: IC50 (AchE)/IC50 (BuChE).
(Ellman's reagent forms a yellow product with free thiols.)

In assay [2] the target is T2, acetylcholine esterase (AChE) (Mus musculus, UniProt P21836).
T2 construct: brain homogenate and serum of mouse were used as choline esterase enzyme sources; from tissue; host or cells: mouse brain homogenate
T2 sequence (P21836 32-614): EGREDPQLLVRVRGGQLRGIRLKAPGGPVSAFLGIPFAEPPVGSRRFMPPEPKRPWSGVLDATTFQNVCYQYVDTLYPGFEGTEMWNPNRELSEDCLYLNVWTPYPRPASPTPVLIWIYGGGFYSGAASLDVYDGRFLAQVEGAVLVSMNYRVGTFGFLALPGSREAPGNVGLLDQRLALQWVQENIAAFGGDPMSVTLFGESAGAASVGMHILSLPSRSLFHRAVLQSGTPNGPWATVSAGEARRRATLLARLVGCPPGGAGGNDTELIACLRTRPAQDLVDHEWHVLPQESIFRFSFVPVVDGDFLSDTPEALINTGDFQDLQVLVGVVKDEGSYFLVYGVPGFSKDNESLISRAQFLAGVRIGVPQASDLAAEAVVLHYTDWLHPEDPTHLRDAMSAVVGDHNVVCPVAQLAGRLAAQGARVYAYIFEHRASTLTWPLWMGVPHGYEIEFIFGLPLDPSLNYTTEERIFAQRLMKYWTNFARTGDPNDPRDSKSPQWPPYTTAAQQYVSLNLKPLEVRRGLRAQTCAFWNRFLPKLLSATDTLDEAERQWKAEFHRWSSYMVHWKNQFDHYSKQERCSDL
The assay is described as follows: In vitro assay for choline esterase inhibition (Ellman method), acetylthiocholine substrate, mouse brain homogenate. The assay is classed as biochemical. The protocol: as §1, §2, §3

Where [3] appears, read: mouse serum, butyrylthiocholine, absorbance at 415 nm, read-out: BuChE inhibitory activity IC50.
Where [4] appears, read: mouse brain homogenate, acetylthiocholine, absorbance at 415 nm, read-out: AChE inhibitory activity IC50.

Where two headings read alike, the source gives them in different places.

As usually defined, the IC50 is the concentration needed to halve the response being measured.

T1 sequence (Q03311 30-603): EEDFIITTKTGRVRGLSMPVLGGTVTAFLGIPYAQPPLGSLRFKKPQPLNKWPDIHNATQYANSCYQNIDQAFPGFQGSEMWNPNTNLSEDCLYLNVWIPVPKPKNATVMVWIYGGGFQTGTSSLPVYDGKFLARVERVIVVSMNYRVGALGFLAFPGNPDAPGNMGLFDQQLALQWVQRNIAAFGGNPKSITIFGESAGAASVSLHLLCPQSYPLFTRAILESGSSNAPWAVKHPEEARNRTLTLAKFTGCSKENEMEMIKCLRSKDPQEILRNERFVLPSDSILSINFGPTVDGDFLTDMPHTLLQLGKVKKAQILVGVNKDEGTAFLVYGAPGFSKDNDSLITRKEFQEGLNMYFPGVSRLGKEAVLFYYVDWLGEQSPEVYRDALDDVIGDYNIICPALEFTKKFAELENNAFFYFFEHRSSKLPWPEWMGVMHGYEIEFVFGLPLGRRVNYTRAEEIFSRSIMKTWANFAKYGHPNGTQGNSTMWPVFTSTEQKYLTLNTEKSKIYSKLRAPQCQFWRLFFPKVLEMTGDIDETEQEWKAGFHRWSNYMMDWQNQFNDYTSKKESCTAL

As to `CN(C)c1ccc(NC(=O)Oc2ccc3c(c2)CCN3Cc2ccccc2)cc1` [Example 133, 1-benzylindolin-5-yl 4-dimethylaminophenylcarbamate], in assay [1], half-maximal inhibition (IC50) was put at 39 nM; the “Ratio AChE/BuChE” value is listed as greater than 2600; the “selectivity to butyrylcholinesterase (BuChE versus AChE inhibitory activity), in words” value is on record as “much higher”. In assay [2], this compound yielded a half-inhibitory concentration (IC50) greater than 100000 nM.
On to `CC(C)c1ccc(NC(=O)Oc2ccc3c(c2)CCN3Cc2ccccn2)cc1` [Example 60, 1-(2-pyridylmethyl)indolin-5-yl 4-isopropylphenylcarbamate], for which, in assay [1], the IC50 came out at 130 nM and the “Ratio AChE/BuChE” value is greater than 770. The same compound had an IC50 in assay [2] greater than 100000 nM.
Regarding `CC(C)c1ccc(NC(=O)Oc2ccc3c(c2)CCN3Cc2cccc(O)c2)cc1` [Example 62, 1-(3-hydroxybenzyl)indolin-5-yl 4-isopropylphenylcarbamate], the IC50 was 450 nM in assay [1] and greater than 100000 nM in assay [2]. The “Ratio AChE/BuChE” value in assay [1] is given as greater than 220.
`CC(C)c1ccc(NC(=O)Oc2ccc3c(c2)CCN3Cc2ccc[nH]2)cc1` [Example 65, 1-[(pyrrol-2-yl)methyl]indolin-5-yl-4-isopropylphenylcarbamate]: the IC50 in assay [1] (setting [3]) is 700 nM; in assay [2] (setting [4]), greater than 100000 nM. The “Ratio AChE/BuChE” value in assay [1] is given as greater than 140.
On the same counts, the results for `O=C(NCc1ccco1)Oc1ccc2c(c1)CCN2Cc1ccccc1` [Example 18, 1-benzylindolin-5-yl furfurylcarbamate] are 38 nM, 1800 nM and 47.
For the compound `O=C(NC1CCN(Cc2ccccc2)CC1)Oc1ccc2c(c1)CCN2Cc1ccccc1` [Example 138, 1-benzylindolin-5-yl 1-benzylpiperidin-4-ylcarbamate], in assay [1], the IC50 stood at 900 nM and the “Ratio AChE/BuChE” value is reported as greater than 110. In assay [2], this compound registered a half-maximal inhibitory concentration (IC50) greater than 100000 nM.
In the case of `Cc1ccccc1CCNC(=O)Oc1ccc2c(c1)CCN2Cc1ccccc1` [Example 115, 1-benzylindolin-5-yl 2-methylphenethylcarbamate], the IC50 in assay [1] (setting [3]) amounted to 10 nM; in assay [2] (setting [4]), 12000 nM. Further, in assay [1], the “Ratio AChE/BuChE” value was found to be 1200. In addition, the “selectivity to butyrylcholinesterase (BuChE versus AChE inhibitory activity), in words” value in assay [1] was “much higher”.
Regarding `CC(C)c1ccc(NC(=O)Oc2ccc3c(c2)CCN3CC2CCCCC2)cc1` [Example 75, 1-(cyclohexylmethyl)indolin-5-yl 4-isopropylphenylcarbamate], in assay [1], the half-maximal inhibitory concentration (IC50) was 770 nM and the “Ratio AChE/BuChE” value is greater than 130. In assay [2], this compound had an IC50 greater than 100000 nM.
For `O=C(NCCc1ccc(Cl)cc1)Oc1ccc2c(c1)CCN2Cc1ccccc1` [Example 104, 1-benzylindolin-5-yl 4-chlorophenethylcarbamate], the IC50 was 11 nM in assay [1] (setting [3]) and 5500 nM in assay [2] (setting [4]). Moreover, in assay [1], the “Ratio AChE/BuChE” value is on record as 500. The “selectivity to butyrylcholinesterase (BuChE versus AChE inhibitory activity), in words” value in assay [1] is recorded as “much higher”.
Regarding `CCCNC(=O)Oc1ccc2c(c1)CCN2Cc1ccccc1` [Example 114, 1-benzylindolin-5-yl n-propylcarbamate], the IC50 was found to be 180 nM in assay [1] (setting [3]) and 5200 nM in assay [2] (setting [4]). Further, the “Ratio AChE/BuChE” value in assay [1] stood at 29.
The matching figures for `O=C(NCc1ccccc1)Oc1ccc2c(c1)CCN2Cc1ccccn1` [Example 150, 1-(2-pyridylmethyl)indolin-5-yl benzylcarbamate]: 10 nM, 110 nM and 11.
On to `O=C(NCC1CCCCC1)Oc1ccc2c(c1)CCN2Cc1ccccn1` [Example 148, 1-(2-pyridylmethyl)indolin-5-yl cyclohexylmethylcarbamate], for which the IC50 in assay [1] (setting [3]) came to 2 nM. In assay [1], the “Ratio AChE/BuChE” value is 600 and the “selectivity to butyrylcholinesterase (BuChE versus AChE inhibitory activity), in words” value is listed as “much higher”. The IC50 in assay [2] (setting [4]) amounted to 1200 nM.
For `CN(CC1CCCCC1)C(=O)Oc1ccc2c(c1)C(C)(C)CN2Cc1ccccc1` [Example 216, O-(1-benzyl-3,3-dimethylindolin-5-yl)-N-(cyclohexylmethyl)-N-methylcarbamate], in assay [1], 2.4 nM corresponded to half-maximal inhibition (IC50); the “Ratio AChE/BuChE” value is given as 23000; the “selectivity to butyrylcholinesterase (BuChE versus AChE inhibitory activity), in words” value was “much higher”. For the same compound, the half-inhibitory concentration (IC50) in assay [2] came to 54000 nM.
Consider `CCCN(CCC)C(=O)CC1c2cc(OC(=O)Nc3ccc(C(C)C)cc3)ccc2N(Cc2ccccc2)C1C` (stereo not shown) [Example 162, 1-benzyl-3-(di-n-propylaminocarbonylmethyl)-2-methylindolin-5-yl 4-isopropyl phenylcarbamate], for which the IC50 was 410 nM in assay [1] and greater than 100000 nM in assay [2]. For the same compound, in assay [1], the “Ratio AChE/BuChE” value is on record as greater than 240.
On to `CN(CC1CCOCC1)C(=O)Oc1ccc2c(c1)C(C)(C)CN2Cc1cccnc1` [Example 219, N-methyl-O-[1-(3-pyridylmethyl)-3,3-dimethylindolin-5-yl]-N-(4-tetrahydropyranylmethyl)carbamate], for which, in assay [1], the IC50 was found to be 1.2 nM; the “Ratio AChE/BuChE” value was 17000; the “selectivity to butyrylcholinesterase (BuChE versus AChE inhibitory activity), in words” value is listed as “much higher”. The compound also showed an IC50 in assay [2] of 20000 nM.
As for `CCCCCCNC(=O)Oc1ccc2c(c1)CCN2Cc1ccccn1` [Example 147, 1-(2-pyridylmethyl)indolin-5-yl n-hexylcarbamate], the IC50 was 11 nM in assay [1] (setting [3]) and 250 nM in assay [2] (setting [4]). In assay [1], the “Ratio AChE/BuChE” value was found to be 23.
The matching figures for `O=C(NCc1ccccc1)Oc1ccc2c(c1)CCN2` [Example 127, indolin-5-yl benzylcarbamate]: 610 nM, 750 nM and 1.2.
With `CC(C)c1ccc(NC(=O)Oc2ccc3c(c2)CCN3Cc2ccncc2)cc1` [Example 27, 1-(4-pyridylmethyl)indolin-5-yl 4-isopropylphenylcarbamate], in assay [1], the IC50 worked out at 1100 nM and the “Ratio AChE/BuChE” value is on record as greater than 91. Further, in assay [2], the IC50 was greater than 100000 nM.
For `COc1ccc(CNC(=O)Oc2ccc3c(c2)CCN3Cc2ccccc2)cc1` [Example 31, 1-benzylindolin-5-yl 4-methoxybenzylcarbamate], the IC50 in assay [1] (setting [3]) was 17 nM; in assay [2] (setting [4]) it was 4100 nM. The “Ratio AChE/BuChE” value in assay [1] is given as 240. In assay [1], the “selectivity to butyrylcholinesterase (BuChE versus AChE inhibitory activity), in words” value is recorded as “much higher”.
`CC(C)c1ccc(NC(=O)Oc2ccc3c(c2)CCN3Cc2ccccc2O)cc1` [Example 66, 1-(2-hydroxybenzyl)indolin-5-yl 4-isopropylphenylcarbamate]: in assay [1], half-maximal inhibition (IC50) was put at 570 nM and the “Ratio AChE/BuChE” value is given as greater than 180. Besides, in assay [2], the IC50 is greater than 100000 nM.
`CC(C)c1ccc(NC(=O)Oc2ccc3c(c2)CCN3Cc2ccc(O)cc2)cc1` [Example 78, 1-(4-hydroxybenzyl)indolin-5-yl 4-isopropylphenylcarbamate]: the IC50 in assay [1] was 820 nM; in assay [2], greater than 100000 nM. Further, the “Ratio AChE/BuChE” value in assay [1] was greater than 120.
`O=C(Nc1ccc2c(c1)OCCO2)Oc1ccc2c(c1)CCN2Cc1ccccc1` [Example 11, 1-benzylindolin-5-yl 2,3-dihydro-1,4-benzodioxin-6-ylcarbamate]: in assay [1], the IC50 was found to be 170 nM and the “Ratio AChE/BuChE” value was greater than 590. In addition, the IC50 in assay [2] is greater than 100000 nM.
